Test results: PubChem BioAssay (NCI)
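Test compounds were applied to cells in 96-well plates for 48 hours at 5 doses. TGI: concentration producing complete growth inhibition.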

Key:
Assay in all cases: growth of human tumour cells (NCI), 48 h
[1] = tested on: EKVX NSCLC
[2] = tested on: RPMI-8226 leukemia
[3] = tested on: SK-OV-3 ovarian
[4] = tested on: RXF 393 renal
[5] = tested on: HCT-116 colon
[6] = tested on: HS 578T breast
[7] = tested on: DU-145 prostate
[8] = tested on: BT-549 breast
[9] = tested on: U251 CNS
[10] = tested on: MDA-MB-231 breast
[11] = tested on: NCI-H23 lung
[12] = tested on: IGROV1 ovarian
[13] = tested on: LOX IMVI melanoma
[14] = tested on: SN12C renal
[15] = tested on: NCI/ADR-RES ovarian
[16] = tested on: SNB-19 CNS
[17] = tested on: COLO 205 colon
[18] = tested on: HL-60(TB) leukemia
[19] = tested on: SR leukemia
[20] = tested on: T-47D breast
[21] = tested on: UO-31 renal
[22] = tested on: ACHN renal
[23] = tested on: UACC-257 melanoma
[24] = tested on: UACC-62 melanoma
[25] = tested on: NCI-H522 lung
[26] = tested on: CAKI-1 renal
[27] = tested on: SK-MEL-2 melanoma
[28] = tested on: NCI-H460 lung
[29] = tested on: SW-620 colon
[30] = tested on: MDA-MB-435
[31] = tested on: 786-0 renal
[32] = tested on: TK-10 renal
[33] = tested on: HT29 colon
[34] = tested on: HCT-15 colon
[35] = tested on: MALME-3M melanoma
[36] = tested on: HOP-62 NSCLC
[37] = tested on: A498 renal
[38] = tested on: SF-268 CNS
[39] = tested on: OVCAR-4 ovarian
[40] = tested on: OVCAR-3 ovarian
[41] = tested on: SF-539 CNS
[42] = tested on: OVCAR-8 ovarian
[43] = tested on: PC-3 prostate
[44] = tested on: K-562 leukemia
[45] = tested on: KM12 colon
[46] = tested on: HCC-2998 colon
[47] = tested on: NCI-H226 lung
[48] = tested on: CCRF-CEM leukemia
[49] = tested on: SF-295 CNS
[50] = tested on: SNB-75 CNS
[51] = tested on: MDA-N
[52] = tested on: SK-MEL-28 melanoma
[53] = tested on: OVCAR-5 ovarian
[54] = tested on: A549 NSCLC
[55] = tested on: SK-MEL-5 melanoma
[56] = tested on: M14 melanoma
[57] = tested on: HOP-92 NSCLC
[58] = tested on: MCF7 breast
[59] = tested on: MOLT-4 leukemia
[60] = tested on: SNB-78 CNS
[61] = tested on: DLD-1 colon
[62] = tested on: HOP-18 NSCLC
[63] = tested on: KM20L2 colon
[64] = tested on: DMS 273 small cell lung
[65] = tested on: M19-MEL melanoma
[66] = tested on: LXFL 529 NSCLC
[67] = tested on: DMS 114 small cell lung

SMILES: CC(C)(C)c1cc2c(OC/C=C/c3ccccc3)c(c1)Cc1cc(C(C#N)(OC/C=C/c3ccccc3)OC/C=C/c3ccccc3)cc(c1OC/C=C\c1ccccc1)Cc1cc(C(C)(C)C)cc(c1OC/C=C/c1ccccc1)Cc1cc(C(C#N)(OC/C=C\c3ccccc3)OC/C=C/c3ccccc3)cc(c1OC/C=C\c1ccccc1)C2 (centres undefined)
- TGI [1]: > 100 µM
- TGI [2]: > 100 µM
- TGI [3]: > 100 µM
- TGI [4]: > 100 µM
- TGI [5]: > 100 µM
- TGI [6]: > 100 µM
- TGI [7]: > 100 µM
- TGI [8]: > 100 µM
- TGI [9]: > 100 µM
- TGI [10]: > 100 µM
- TGI [11]: > 100 µM
- TGI [12]: > 100 µM
- TGI [13]: > 100 µM
- TGI [14]: > 100 µM
- TGI [15]: > 100 µM
- TGI [16]: > 100 µM
- TGI [17]: > 100 µM
- TGI [18]: > 100 µM
- TGI [19]: 49.3 µM
- TGI [20]: > 100 µM
- TGI [21]: > 100 µM
- TGI [22]: > 100 µM
- TGI [23]: > 100 µM
- TGI [24]: > 100 µM
- TGI [25]: > 100 µM
- TGI [26]: > 100 µM
- TGI [27]: > 100 µM
- TGI [28]: > 100 µM
- TGI [29]: > 100 µM
- TGI [30]: > 100 µM
- TGI [31]: > 100 µM
- TGI [32]: 54.3 µM
- TGI [33]: > 100 µM
- TGI [34]: > 100 µM
- TGI [35]: > 100 µM
- TGI [36]: > 100 µM
- TGI [37]: > 100 µM
- TGI [38]: > 100 µM
- TGI [39]: > 100 µM
- TGI [40]: > 100 µM
- TGI [41]: > 100 µM
- TGI [42]: > 100 µM
- TGI [43]: > 100 µM
- TGI [44]: > 100 µM
- TGI [45]: > 100 µM
- TGI [46]: > 100 µM
- TGI [47]: > 100 µM
- TGI [48]: > 100 µM
- TGI [49]: > 100 µM
- TGI [50]: > 100 µM
- TGI [51]: > 100 µM
- TGI [52]: > 100 µM
- TGI [53]: > 100 µM
- TGI [54]: > 100 µM
- TGI [55]: > 100 µM
- TGI [56]: > 100 µM
- TGI [57]: > 100 µM
- TGI [58]: > 100 µM
- TGI [59]: > 100 µM

SMILES: O=C(CSc1nnc(Cc2ccccc2)o1)Nc1ccccc1
- TGI [60]: > 100 µM
- TGI [2]: > 100 µM
- TGI [3]: > 100 µM
- TGI [4]: > 100 µM
- TGI [5]: > 100 µM
- TGI [9]: > 100 µM
- TGI [11]: > 100 µM
- TGI [61]: > 100 µM
- TGI [12]: > 100 µM
- TGI [13]: > 100 µM
- TGI [14]: > 100 µM
- TGI [17]: > 100 µM
- TGI [18]: > 100 µM
- TGI [21]: > 100 µM
- TGI [22]: > 100 µM
- TGI [62]: > 100 µM
- TGI [23]: > 100 µM
- TGI [24]: > 100 µM
- TGI [63]: > 100 µM
- TGI [25]: > 100 µM
- TGI [27]: > 100 µM
- TGI [64]: > 100 µM
- TGI [28]: > 100 µM
- TGI [31]: > 100 µM
- TGI [65]: > 100 µM
- TGI [32]: > 100 µM
- TGI [33]: > 100 µM
- TGI [66]: > 100 µM
- TGI [34]: > 100 µM
- TGI [35]: > 100 µM
- TGI [36]: > 100 µM
- TGI [37]: > 100 µM
- TGI [38]: > 100 µM
- TGI [39]: > 100 µM
- TGI [40]: > 100 µM
- TGI [41]: > 100 µM
- TGI [42]: > 100 µM
- TGI [44]: > 100 µM
- TGI [45]: > 100 µM
- TGI [46]: > 100 µM
- TGI [47]: > 100 µM
- TGI [48]: > 100 µM
- TGI [49]: > 100 µM
- TGI [50]: > 100 µM
- TGI [52]: > 100 µM
- TGI [53]: > 100 µM
- TGI [54]: > 100 µM
- TGI [55]: > 100 µM
- TGI [56]: > 100 µM
- TGI [67]: > 100 µM
- TGI [59]: > 100 µM

SMILES: Cc1ccc(NC(Nc2ccc(C)cc2C)=C(/C=C(\Cl)[N+](=O)[O-])[N+](=O)[O-])c(C)c1
- TGI [1]: 32.3 µM
- TGI [2]: 4.36 µM
- TGI [3]: 21 µM
- TGI [4]: 3.75 µM
- TGI [5]: 3.14 µM
- TGI [6]: 17 µM
- TGI [7]: 33.2 µM
- TGI [8]: 11.7 µM
- TGI [9]: 23.6 µM
- TGI [10]: 17.3 µM
- TGI [11]: 20.8 µM
- TGI [12]: 20.9 µM
- TGI [13]: 3.25 µM
- TGI [14]: 14.4 µM
- TGI [15]: 48.8 µM
- TGI [16]: 26 µM
- TGI [17]: 4.99 µM
- TGI [18]: 2.6 µM
- TGI [19]: 4.13 µM
- TGI [20]: 3.99 µM
- TGI [21]: 19.2 µM
- TGI [22]: 8.26 µM
- TGI [23]: 13.1 µM
- TGI [24]: 10 µM
- TGI [25]: 4.52 µM
- TGI [26]: 4.23 µM
- TGI [27]: 16.9 µM
- TGI [28]: 36.7 µM
- TGI [29]: 4.02 µM
- TGI [30]: 7.98 µM
- TGI [31]: 8.95 µM
- TGI [32]: 13.2 µM
- TGI [33]: 18.8 µM
- TGI [34]: 11.5 µM
- TGI [35]: 7.13 µM
- TGI [36]: 34.1 µM
- TGI [37]: 32.4 µM
- TGI [38]: 10.3 µM
- TGI [39]: 12.9 µM
- TGI [40]: 8.7 µM
- TGI [41]: 23.3 µM
- TGI [42]: 7.86 µM
- TGI [43]: 17.2 µM
- TGI [44]: 3.75 µM
- TGI [45]: 26.7 µM
- TGI [46]: 38.4 µM
- TGI [47]: 22.1 µM
- TGI [48]: 1.72 µM
- TGI [49]: 31.2 µM
- TGI [50]: 16.4 µM
- TGI [51]: 10.9 µM
- TGI [52]: 4.77 µM
- TGI [53]: 19.7 µM
- TGI [54]: 35 µM
- TGI [55]: 13.4 µM
- TGI [56]: 5.69 µM
- TGI [57]: 3.99 µM
- TGI [58]: 12.4 µM
- TGI [59]: 4.82 µM
